Measurements taken from PubChem BioAssay (NCI).
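Five concentrations, 48 hours, 96-well plates. Here, GI50 denotes the concentration required for 50% inhibition of growth. At the TGI there is no net growth.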

Legend:
Test in all cases: DTP human tumour cell line panel, 48 h
A549 NSCLC = tested on: A549 NSCLC
EKVX NSCLC = tested on: EKVX NSCLC
HT29 colon = tested on: HT29 colon
M14 melanoma = tested on: M14 melanoma
NCI-H226 lung = tested on: NCI-H226 lung
OVCAR-3 ovarian = tested on: OVCAR-3 ovarian
OVCAR-4 ovarian = tested on: OVCAR-4 ovarian
SF-268 CNS = tested on: SF-268 CNS
SN12C renal = tested on: SN12C renal
SNB-19 CNS = tested on: SNB-19 CNS

Row | Structure (SMILES) | GI50 (A549 NSCLC) [µM] | TGI (A549 NSCLC) [µM] | GI50 (EKVX NSCLC) [µM] | TGI (EKVX NSCLC) [µM] | GI50 (HT29 colon) [µM] | TGI (HT29 colon) [µM] | GI50 (M14 melanoma) [µM] | TGI (M14 melanoma) [µM] | GI50 (NCI-H226 lung) [µM] | TGI (NCI-H226 lung) [µM] | GI50 (OVCAR-3 ovarian) [µM] | TGI (OVCAR-3 ovarian) [µM] | GI50 (OVCAR-4 ovarian) [µM] | TGI (OVCAR-4 ovarian) [µM] | GI50 (SF-268 CNS) [µM] | TGI (SF-268 CNS) [µM] | GI50 (SN12C renal) [µM] | TGI (SN12C renal) [µM] | GI50 (SNB-19 CNS) [µM] | TGI (SNB-19 CNS) [µM]
1 | COc1cc2nc(N3CCCN(C)CC3)nc(NC3CCN(Cc4ccccc4)CC3)c2cc1OC | 2.94 | 10.2 | 3.83 | 13.9 | 1.33 | 5.26 | 1.76 | 3.22 | 2.68 | 9.08 | 3.17 | 9.41 | 1.81 | 4.79 | 2.72 | 8.65 | 6.68 | 25 | 4.28 | 18.1
2 | CC(C)(C)C(=O)N1C(C(=O)O)Cc2ccccc2[C@@H]1Cc1ccccc1 (stereo not given in full) |  | > 100 |  | > 100 |  | > 100 |  | > 100 |  | > 100 |  | > 100 |  | > 100 |  | > 100 |  | > 100 |  | > 100
3 | CSC(=NC(=O)c1ccccc1Cl)SCCSC(=NC(=O)c1ccccc1Cl)SC |  | > 100 |  | > 100 |  | > 100 |  | > 100 |  | > 100 |  | > 100 |  | > 100 |  | > 100 |  | > 100 |  | > 100
4 | COc1nc(N)nc2c1ncn2C1CC(O)C(CO)O1 (stereo not given) |  | > 100 |  | > 100 |  | > 100 |  | > 100 |  | > 100 |  | > 100 |  | > 100 |  | > 100 |  | > 100 |  | > 100
5 | CC(=O)O.CN1[CH-]N(Cc2ccc(C#N)cc2)c2ccccc21.[Ag+] | 32.3 | > 100 | > 100 | > 100 | 21.6 | 44.4 | 16.9 | 32.7 | 16.7 | 50.9 | 16.6 | 30.4 | 15.8 | 32.8 | 72 | > 100 | 18.9 | 38.4 | 29.3 | > 100
6 | CCN1CCN(CCNc2nccc(-c3c(-c4ccc(F)c(O)c4)nc4occn34)n2)S1(=O)=O | 4.58 | > 100 | 6.81 | > 100 | 4.2 | > 100 | 4.28 | > 100 | 3.8 | > 100 | 4.44 | > 100 | 4.59 | > 100 | 4.84 | > 100 | 4.41 | > 100 | > 100 | > 100
7 | CCC1=C(c2ccc(OC)cc2)C(C)(C)Oc2c1ccc(O)c2CN1CCCC1 | 3.63 | 26.8 | 18.6 | > 100 | 3.14 | 8.94 | 1.65 | 3.39 | 2.45 | 14.7 | 4.13 | 36.2 | 2.16 | 29 | 8.8 | > 100 | 3.74 | > 100 | 6.69 | 56.9
8 | CN(C)CCNc1ccc2ncn3c4ccc(O)cc4c(=O)c1c23 |  | 4.26 |  | 17.5 |  | 7.39 |  | 8.47 |  | 3.47 |  | 13.4 |  | 4.89 |  | 10.7 |  | 13.3 |  | 17.2
